PMC10845951, “Characterization of a selective, iron-chelating antifungal compound that disrupts fungal metabolism and synergizes with fluconazole” (Microbiology Spectrum, 2024)

System: C. glabrata gene expression
Test: RNA sequencing (gene regulation)
Assay type: cell-based, Candida glabrata
Conditions: for Log2 Fold-Change: vs DMSO
Experimental: Cells from overnight precultures in YPD medium were reinoculated in fresh YNB −iron medium (see “Culture maintenance” for contents) without iron and grown until OD600 of 0.4. […] Cells were collected from three independent experiments, snap frozen, and stored at −80°C. Total RNA purification was performed as previously described using the RNeasy Mini Kit (74104, Qiagen), and gDNA removal was made using the RNase-Free DNase Set kit (79254, Qiagen). RNA quantification and quality control were done with a Tape Station 4150 (Agilent) ([59]).
Library preparation and sequencing were performed at GenomEast (IGBMC, Illkirch, France). One DMSO 0.05% sample was excluded from the analysis due to insufficient quality. The library was sequenced on Illumina Hiseq 4000 sequencer as single-read 50-base reads following Illumina’s instructions. Reads were pre-processed in order to remove adapter, polyA, and low-quality sequences (Phred quality score below 20). Reads shorter than 40 bases were discarded from further analysis. These pre-processing steps were performed using cutadapt version 1.10 ([60]). Image analysis and base calling were performed using RTA 2.7.7 and bcl2fastq2.17.1.14. Adapter dimer reads were removed using DimerRemover (https://sourceforge.net/projects/dimerremover/). The quality of the RNAseq reads was examined using FastQC 0.11.2 (http://www.bioinformatics.babraham.ac.uk/projects/fastqc/) and FastQScreen 0.5.1 (https://www.bioinformatics.babraham.ac.uk/projects/fastq_screen/). Reads were mapped onto the ASM254v2 assembly of Candida glabrata genome using STAR version 2.5.3a ([61]). Gene expression quantification was performed from uniquely aligned reads using htseq-count version 0.6.1p1 ([62]), with annotations from Ensembl fungi version 50 and union mode. Only non-ambiguously assigned reads have been retained for further analyses. Read counts were normalized across samples with the median-of-ratios method ([63]). Comparisons were implemented in the Bioconductor package DESeq2 version 1.16.1 using the test for differential expression ([64]). Genes with no P-value corresponded to genes with high Cook’s distance that were filtered out. P-values were adjusted for multiple testing using the Benjamini and Hochberg method ([65]). Genes with no adjusted P-value correspond to genes filtered out in the independent filtering step in order to remove reads from genes that have no or little chance of showing evidence of significant differential expression.

## c1ccc(-c2cccc(-c3ccccn3)n2)nc1 [2,2′:6′,2′′-terpyridine]
10 µM, 1 h
  genes significantly downregulated: 220 genes
  genes significantly upregulated: 224 genes
ALD5 CAGL0J03212g
  Log2 Fold-Change: 0.7544
AP5 CAGL0K08756g
  Log2 Fold-Change: 0.9964
APE1 CAGL0K08536g
  Log2 Fold-Change: 0.6939
C. glabrata and S. cerevisiae
  transcriptional response: strong iron starvation response
CAGL0A03674g
  Log2 Fold-Change: 0.5588
CAGL0B00484g
  Log2 Fold-Change: 0.7628
CAGL0B00792g
  Log2 Fold-Change: 1.214
CAGL0B00880g
  Log2 Fold-Change: 0.7009
CAGL0B01485g
  Log2 Fold-Change: 0.6219
CAGL0B02343g
  Log2 Fold-Change: 1.023
CAGL0H06963g
  Log2 Fold-Change: 0.7275
CAGL0H06985g
  Log2 Fold-Change: 0.7901
CAGL0H07205g
  Log2 Fold-Change: 0.5522
CAGL0H08393g
  Log2 Fold-Change: 1.535
CAGL0H09966g
  Log2 Fold-Change: 1.521
CAGL0I00264g
  Log2 Fold-Change: 0.9978
CAGL0I02354g
  Log2 Fold-Change: 0.6425
CAGL0I02376g
  Log2 Fold-Change: 0.6418
CAGL0I02398g
  Log2 Fold-Change: 0.5822
CAGL0I02508g
  Log2 Fold-Change: 0.5529
CAGL0I02684g
  Log2 Fold-Change: 0.5135
CAGL0I03344g
  Log2 Fold-Change: 0.7316
CAGL0I03608g
  Log2 Fold-Change: 0.7862
CAGL0I03630g
  Log2 Fold-Change: 0.6284
CAGL0I04290g
  Log2 Fold-Change: 0.6237
CAGL0I05060g
  Log2 Fold-Change: 0.5728
CAGL0I05654g
  Log2 Fold-Change: 0.7141
CAGL0I09350g
  Log2 Fold-Change: 0.5587
CAGL0I09702g
  Log2 Fold-Change: 0.5611
CAGL0I10670g
  Log2 Fold-Change: 0.9553
CAGL0J00451g
  Log2 Fold-Change: 2.136
CAGL0J00473g
  Log2 Fold-Change: 0.7426
CAGL0J01023g
  Log2 Fold-Change: 1.022
CAGL0J01045g
  Log2 Fold-Change: 0.9433
CAGL0J02376g
  Log2 Fold-Change: 0.7958
CAGL0J03718g
  Log2 Fold-Change: 0.5395
CAGL0J05412g
  Log2 Fold-Change: 0.5243
CAGL0J07568g
  Log2 Fold-Change: 0.7185
CAGL0J07980g
  Log2 Fold-Change: 0.7919
CAGL0J08250g
  Log2 Fold-Change: 0.5358
CAGL0J08910g
  Log2 Fold-Change: 0.5502
CAGL0J09196g
  Log2 Fold-Change: 0.506
CAGL0J09460g
  Log2 Fold-Change: 0.6815
CAGL0J10032g
  Log2 Fold-Change: 0.7428
CAGL0J10252g
  Log2 Fold-Change: 0.8692
CAGL0J10912g
  Log2 Fold-Change: 0.7791
CAGL0J11066g
  Log2 Fold-Change: 0.8417
CAGL0J11088g
  Log2 Fold-Change: 0.5227
CAGL0J11242g
  Log2 Fold-Change: 0.9997
CAGL0J11286g
  Log2 Fold-Change: 0.9034
CAGL0K02211g
  Log2 Fold-Change: 0.9809
CAGL0K02387g
  Log2 Fold-Change: 0.933
CAGL0K02431g
  Log2 Fold-Change: 0.8737
CAGL0K03861g
  Log2 Fold-Change: 0.5943
CAGL0K05049g
  Log2 Fold-Change: 0.5707
CAGL0K05555g
  Log2 Fold-Change: 0.5483
CAGL0K06215g
  Log2 Fold-Change: 1.181
CAGL0K07007g
  Log2 Fold-Change: 1.24
CAGL0K07898g
  Log2 Fold-Change: 0.62
CAGL0K08272g
  Log2 Fold-Change: 0.5171
CAGL0K08360g
  Log2 Fold-Change: 0.5636
CAGL0K09284g
  Log2 Fold-Change: 1.197
CAGL0K09372g
  Log2 Fold-Change: 0.5402
CAGL0K09614g
  Log2 Fold-Change: 0.8683
CAGL0K09922g
  Log2 Fold-Change: 0.6435
CAGL0L00583g
  Log2 Fold-Change: 0.7346
CAGL0L02739g
  Log2 Fold-Change: 0.6875
CAGL0L02871g
  Log2 Fold-Change: 0.8194
CAGL0L03047g
  Log2 Fold-Change: 0.9793
CAGL0L03696g
  Log2 Fold-Change: 0.5808
CAGL0L04092g
  Log2 Fold-Change: 0.5318
CAGL0L04114g
  Log2 Fold-Change: 0.5841
CAGL0L04950g
  Log2 Fold-Change: 0.896
CAGL0L05170g
  Log2 Fold-Change: 0.8533
CAGL0L05258g
  Log2 Fold-Change: 1.271
CAGL0L05500g
  Log2 Fold-Change: 0.7913
CAGL0L05566g
  Log2 Fold-Change: 0.7478
CAGL0L05786g
  Log2 Fold-Change: 1.136
CAGL0L06468g
  Log2 Fold-Change: 0.5199
CAGL0L06754g
  Log2 Fold-Change: 0.7195
CAGL0L07678g
  Log2 Fold-Change: 0.9514
CAGL0L07832g
  Log2 Fold-Change: 0.9435
CAGL0L08096g
  Log2 Fold-Change: 0.673
CAGL0L08206g
  Log2 Fold-Change: 0.6805
CAGL0L08756g
  Log2 Fold-Change: 0.7529
CAGL0L08976g
  Log2 Fold-Change: 0.7934
CAGL0L10846g
  Log2 Fold-Change: 0.7927
CDC21 CAGL0K05467g
  Log2 Fold-Change: 0.5322
FTR1 CAGL0I06743g
  Log2 Fold-Change: 1.014
GAT1 CAGL0K07634g
  Log2 Fold-Change: 0.7416
HBN1 CAGL0B00990g
  Log2 Fold-Change: 1.565
HMX1 CAGL0A03905g
  Log2 Fold-Change: 1.923
KNH1 CAGL0H07997g
  Log2 Fold-Change: 0.5109
NOP8 CAGL0B01397g
  Log2 Fold-Change: 0.7894
PDR16 CAGL0J07436g
  Log2 Fold-Change: 0.9143
SNQ2 CAGL0I04862g
  Log2 Fold-Change: 0.5824
SUT1 CAGL0I04246g
  Log2 Fold-Change: 0.7641
SUT2 CAGL0L09383g
  Log2 Fold-Change: 0.6785
TRR1 CAGL0I01166g
  Log2 Fold-Change: 1.667
